# Experimental data reported in patent US7531646B2, “β-D-ribosidase activity indicators with a chromogenic substrate” (priority 2001, dated 2009).
# Legend:
# Assay type in all cases: cell-based
# P. rettgeri = assay: Substrate hydrolysis on Columbia agar; conditions: P. rettgeri NCTC 7475; 300 mg/l; 18 hours
# Enterococcus casseflavus = assay: Substrate hydrolysis on Columbia agar; conditions: Enterococcus casseflavus NCTC 12361; 300 mg/l; 18 hours
# [1] = tested on: Providencia alcalifaciens; assay: Substrate hydrolysis on Columbia agar; conditions: 300 mg/l, 18 hours
# A. calcoaceticus = assay: Substrate hydrolysis on Columbia agar; conditions: A. calcoaceticus ATCC 7844; 300 mg/l; 18 hours
# Hafnia alvei = assay: Substrate hydrolysis on Columbia agar; conditions: 300 mg/l, 18 hours
# Salmonella panama = assay: Substrate hydrolysis on Columbia agar; conditions: Salmonella panama SAX 58; 300 mg/l; 18 hours
# P. penneri = assay: Substrate hydrolysis on Columbia agar; conditions: P. penneri PPE 1; 300 mg/l; 18 hours
# Enterococcus mundtii = assay: Substrate hydrolysis on Columbia agar; conditions: Enterococcus mundtii NCTC 12363; 300 mg/l; 18 hours
# [2] = tested on: Streptococcus vestibularis; assay: Substrate hydrolysis on Columbia agar; conditions: Streptococcus vestibularis NCTC 12166; 300 mg/l; 18 hours
# [3] = tested on: Staphylococcus epidermidis; assay: Substrate hydrolysis on Columbia agar; conditions: 300 mg/l, 18 hours
# E. coli = assay: Substrate hydrolysis on Columbia agar; conditions: 300 mg/l, 18 hours
# Staphylococcus aureus = assay: Substrate hydrolysis on Columbia agar; conditions: 300 mg/l, 18 hours
# Streptococcus mitis = assay: Substrate hydrolysis on Columbia agar; conditions: Streptococcus mitis NCTC 12261; 300 mg/l; 18 hours
# Vibrio cincinnatiensis = assay: Substrate hydrolysis on Columbia agar; conditions: Vibrio cincinnatiensis NCTC 12012; 300 mg/l; 18 hours
# [4] = tested on: Staphylococcus haemolyticus; assay: Substrate hydrolysis on Columbia agar; conditions: 300 mg/l, 18 hours
# [5] = tested on: Haemolytic streptococcus A; assay: Substrate hydrolysis on Columbia agar; conditions: 300 mg/l, 18 hours
# C. freundii = assay: Substrate hydrolysis on Columbia agar; conditions: 300 mg/l, 18 hours
# Streptococcus oralis = assay: Substrate hydrolysis on Columbia agar; conditions: Streptococcus oralis NCTC11427; 300 mg/l; 18 hours
# Listeria ivanovii = assay: Substrate hydrolysis on Columbia agar; conditions: Listeria ivanovii PHLS wild; 300 mg/l; 18 hours
# Gram positive bacteria = assay: Substrate hydrolysis on Columbia agar, summary of screen
# K. oxytoca = assay: Substrate hydrolysis on Columbia agar; conditions: 300 mg/l, 18 hours
substance,measurement,setting,value
"3′,4′-dihydroxyflavone-4′-β-D-glucopyranoside sodium salt [DHF-glucoside]",Hydrolysis by Gram negative bacteria,P. rettgeri,+
same,Hydrolysis by Gram positive organisms,Enterococcus casseflavus,++
same,Hydrolysis by Gram negative bacteria,[1]; Providencia alcalifaciens PAL 1,+
same,Hydrolysis by Gram negative bacteria,[1]; Providencia alcalifaciens PAL 2,+
same,Hydrolysis by Gram negative bacteria,A. calcoaceticus,−
same,Hydrolysis by Gram negative bacteria,Hafnia alvei; Hafnia alvei HAL 2,−
same,Hydrolysis by Gram negative bacteria,Hafnia alvei; Hafnia alvei NCTC 8105,−
same,Hydrolysis by Gram negative bacteria,Salmonella panama,−
same,Hydrolysis by Gram negative bacteria,P. penneri,−
same,Hydrolysis by Gram positive organisms,Enterococcus mundtii,++
same,Hydrolysis by Gram positive organisms,[2],−
same,Hydrolysis by Gram positive organisms,[3]; Staphylococcus epidermidis RB60,−
same,Hydrolysis by Gram positive organisms,[3]; Staphylococcus epidermidis RB62,−
same,Hydrolysis by Gram positive organisms,[3]; Staphylococcus epidermidis RB63,−
same,Hydrolysis by Gram positive organisms,[3]; Staphylococcus epidermidis RB64,++
same,Hydrolysis by Gram positive organisms,[3]; Staphylococcus epidermidis RB65,−
same,Hydrolysis by Gram negative bacteria,E. coli; E. coli ECO 2,−
same,Hydrolysis by Gram negative bacteria,E. coli; E. coli ECO 3,−
same,Hydrolysis by Gram negative bacteria,E. coli; E. coli ECO 4,−
same,Hydrolysis by Gram negative bacteria,E. coli; E. coli ECO 5,−
same,Hydrolysis by Gram negative bacteria,E. coli; E. coli ECO 6,−
same,Hydrolysis by Gram negative bacteria,E. coli; E. coli ECO 7,−
same,Hydrolysis by Gram negative bacteria,E. coli; E. coli ECO 8,−
same,Hydrolysis by Gram negative bacteria,E. coli; E. coli ECO 9,−
same,Hydrolysis by Gram negative bacteria,E. coli; E. coli ECO 10,−
same,Hydrolysis by Gram negative bacteria,E. coli; E. coli ECO 11,−
same,Hydrolysis by Gram negative bacteria,E. coli; E. coli ECO 12,−
same,Hydrolysis by Gram negative bacteria,E. coli; E. coli NCTC 10418,−
same,Hydrolysis by Gram positive organisms,Staphylococcus aureus; Staphylococcus aureus 1,−
same,Hydrolysis by Gram positive organisms,Staphylococcus aureus; Staphylococcus aureus 2,−
same,Hydrolysis by Gram positive organisms,Staphylococcus aureus; Staphylococcus aureus 3,−
same,Hydrolysis by Gram positive organisms,Staphylococcus aureus; Staphylococcus aureus 4,−
same,Hydrolysis by Gram positive organisms,Staphylococcus aureus; Staphylococcus aureus 5,−
same,Hydrolysis by Gram positive organisms,Streptococcus mitis,−
same,Hydrolysis by Gram negative bacteria,Vibrio cincinnatiensis,+
same,Hydrolysis by Gram positive organisms,[4]; Staphylococcus haemolyticus RB 66,−
same,Hydrolysis by Gram positive organisms,[4]; Staphylococcus haemolyticus RB 67,−
same,Hydrolysis by Gram positive organisms,[4]; Staphylococcus haemolyticus RB 68,−
same,Hydrolysis by Gram positive organisms,[4]; Staphylococcus haemolyticus RB 69,−
same,Hydrolysis by Gram positive organisms,[4]; Staphylococcus haemolyticus RB 70,−
same,Hydrolysis by Gram positive organisms,[5]; Haemolytic streptococcus A 1,−
same,Hydrolysis by Gram positive organisms,[5]; Haemolytic streptococcus A 2,−
same,Hydrolysis by Gram positive organisms,[5]; Haemolytic streptococcus A 3,−
same,Hydrolysis by Gram negative bacteria,C. freundii; C. freundii CFR 1,+
same,Hydrolysis by Gram negative bacteria,C. freundii; C. freundii CFR 2,−
same,Hydrolysis by Gram negative bacteria,C. freundii; C. freundii CFR 3,−
same,Hydrolysis by Gram negative bacteria,C. freundii; C. freundii CFR 4,+
same,Hydrolysis by Gram negative bacteria,C. freundii; C. freundii NCTC 9750,+
same,Hydrolysis by Gram positive organisms,Streptococcus oralis,−
same,Hydrolysis by Gram positive organisms,Listeria ivanovii,++
same,colony colour and diffusion,Gram positive bacteria; Strains of Listeria and enterococci,intense black colonies with no diffusion of the black chelate
same,Gram positive bacteria tested that hydrolysed the substrate,"Gram positive bacteria; of 74 Gram positive bacteria tested, 300 mg/l, 18 hours",22.5%
same,Hydrolysis by Gram negative bacteria,K. oxytoca; K. oxytoca KOX 1,+
same,Hydrolysis by Gram negative bacteria,K. oxytoca; K. oxytoca KOX 2,+
